Test results published in patent publication US8791100B2 (Novartis AG, priority 2010, dated 2014).

test system: peripheral lymphocyte counts; assay: Measurement of circulating lymphocytes after oral administration (mice); assay type: in vivo; details: Mus musculus, C57BL/6NCrl mice, 30 mg/kg p.o., 24 hours, vs mean counts of untreated animals, mean ± STDEV, read-out: Residual Lymphocyte Counts 24 hours after p.o. dosing
Protocol: The compounds of the invention, e.g. compounds of formula (I) typically induce the depletion of blood lymphocyte as may be determined in the assay described below. Moreover, compounds of the invention, e.g. compounds of formula (I) are typically efficacious in the said assay also when administered via the per oral route of administration.
Measurement of Circulating Lymphocytes:
The test compounds (or salts thereof) are dissolved in a vehicle such as water, saline, PEG (polyethylene glycol) 200, or PBS (phosphate buffered saline). Adult mice (C57BU6NCrl strain, female, 18-20 g) or rats (Lewis strain, male, 6-12 weeks old) are administered up to 60 mg/kg of the test compounds in 10 ml/kg (C57BU6NCrl mice) or 2 ml/kg (Lewis rats) vehicle via per oral application. The vehicle or a reference salt and FTY720 (0.3 mg/kg) are used as negative and positive controls, respectively. Blood is collected from the sublingual vein at single time points, e.g. 14 or 24 hours after the test compound administration, under short isoflurane anesthesia. Two to three animals are used in each group. Whole blood samples are subjected to hematology analysis. Peripheral lymphocyte counts are determined using an automated analyzer. The Haemathology System uses a combination of light scatter, cytochemical staining and nuclear density on two independent channels to measure the total and differential white cell counts. The reduction of lymphocytes provoked by each test compound is calculated by comparing the lymphocyte counts measured after each treatment to the mean lymphocyte counts measured in five to eight untreated mice or rats, respectively. The data are presented as mean±STDEV.

**Q.** For `CC[C@@H](Nc1ccc(C)c(CN2CC(C(=O)O)C2)c1)c1cc(C)c(Cl)c(C)c1` [Example 41, 1-{5-[(R)-1-(4-Chloro-3,5-dimethyl-phenyl)-propylamino]-2-methyl-benzyl}-azetidine-3-carboxylic acid], which response vs control in vivo at 30 mg/kg is on record?
**A.** Its response vs control in vivo at 30 mg/kg is 20.2%.

**Q.** Which response vs control in vivo at 30 mg/kg does the source give for `CC[C@@H](Nc1ccc(C)c(CN2CC(C(=O)O)C2)c1C)c1ccc(Cl)c(C)c1` [Example 33, 1-{3-[(R)-1-(4-Chloro-3-methyl-phenyl)-propylamino]-2,6-dimethyl-benzyl}-azetidine-3-carboxylic acid] here?
**A.** The response vs control in vivo at 30 mg/kg was 16.2%.

**Q.** With `CC[C@@H](Nc1ccc(C)c(CN2CC[C@@H](C(=O)O)C2)c1)c1ccc(Cl)c(C)c1` [Example 23, (R)-1-{5-[(R)-1-(4-Chloro-3-methyl-phenyl)-propylamino]-2-methyl-benzyl}-pyrrolidine-3-carboxylic acid] as the compound, how does the response vs control in vivo at 30 mg/kg read?
**A.** The response vs control in vivo at 30 mg/kg was 25.1%.

**Q.** Which response vs control in vivo at 30 mg/kg does the source give for `Cc1cc([C@H](Nc2ccc(C)c(CN3CC(C(=O)O)C3)c2)C(F)(F)F)ccc1Cl` [Example 70, 1-{5-[(S)-1-(4-Chloro-3-methyl-phenyl)-2,2,2-trifluoro-ethylamino]-2-methyl-benzyl}-azetidine-3-carboxylic acid] here?
**A.** The response vs control in vivo at 30 mg/kg was 20.2%.

**Q.** How did the response vs control in vivo at 30 mg/kg turn out when `Cc1cc([C@H](Nc2ccc(Cl)c(CN3CC(C)(C(=O)O)C3)c2)C(F)(F)F)ccc1Cl` [Example 65, 1-{2-Chloro-5-[(S)-1-(4-chloro-3-methyl-phenyl)-2,2,2-trifluoro-ethylamino]-benzyl}-3-methyl-azetidine-3-carboxylic acid] was run?
**A.** The response vs control in vivo at 30 mg/kg was 22.6%.

**Q.** Which response vs control in vivo at 30 mg/kg does the source give for `CC[C@@H](Nc1ccc(Cl)c(CN2CC(C)(C(=O)O)C2)c1)c1cc(C)c(Cl)c(C)c1` [Example 66, 1-{2-Chloro-5-[(R)-1-(4-chloro-3,5-dimethyl-phenyl)-propylamino]-benzyl}-3-methyl-azetidine-3-carboxylic acid] here?
**A.** The response vs control in vivo at 30 mg/kg was 19.4%.

biological target: human S1P1 receptors (Homo sapiens (Human), UniProt P21453); assay: Human S1P1 Receptor Calcium FLIPR Antagonist Assay (HeLa Gα16 S1P1); assay type: cell-based; details: relative antagonism vs probing agonist GNF-AC-1 at EC80, HeLa-S1P1/Gα16 cells
From the text: Human S1P1 Receptor Calcium FLIPR Antagonist Assay
The assay measures intracellular changes of Ca^2+ mediated by the synthetic probing agonist 3-{[2-(2-Trifluoromethyl-biphenyl-4-yl)-benzo[b]thiophen-5-ylmethyl]-amino}-propionic acid (GNF-AC-1) in the HeLa-S1P1/Gα16 cell clone 1: HeLa (human cervix carcinoma, ATCC CCL2) cells stably expressing N-terminally myc-tagged human S1P1 receptors (GenBank™ accession No. NM_001400; UNIPROT P21453) and promiscuous Gα16 protein (GenBank™ accession number M63904, Swissprot P30679) are cultured at 37° C., 5% CO2, and 95% relative humidity. The cells are plated in 384 well black plates (10′000 cells per well). After 24 hours the cells are loaded with Fluo-4-AM (1.6 μM in HBSS and 2.5 mM probenicid) for 1 hour at 37° C. After washing, the cells are transferred to the FLIPR. The test compounds are added at different concentrations (≦100 μM) in HBSS in the presence of 0.1% BSA and changes in fluorescence are recorded (indication of agonism). The probing agonist is added 20-30 minutes afterwards to the wells at a concentration giving 80% of the maximal activity (EC80). After each addition, time points are collected as follows: 20 time points (2 seconds) before the addition of the agonist (Fmin) and 60 time points (1 or 2 seconds) after the addition of the probing agonist. This allows the determination of the maximal fluorescence (Fmax). The ratio (Fmax−Fmin)/Fmin is plotted against the log of the concentration of the test compounds and the IC50 (relative antagonism) is calculated using the XLfit-4 software. […] A concentration-response curve of the probing agonist is determined on each plate in parallel.

Chain of human S1P1 receptors (P21453 whole entry): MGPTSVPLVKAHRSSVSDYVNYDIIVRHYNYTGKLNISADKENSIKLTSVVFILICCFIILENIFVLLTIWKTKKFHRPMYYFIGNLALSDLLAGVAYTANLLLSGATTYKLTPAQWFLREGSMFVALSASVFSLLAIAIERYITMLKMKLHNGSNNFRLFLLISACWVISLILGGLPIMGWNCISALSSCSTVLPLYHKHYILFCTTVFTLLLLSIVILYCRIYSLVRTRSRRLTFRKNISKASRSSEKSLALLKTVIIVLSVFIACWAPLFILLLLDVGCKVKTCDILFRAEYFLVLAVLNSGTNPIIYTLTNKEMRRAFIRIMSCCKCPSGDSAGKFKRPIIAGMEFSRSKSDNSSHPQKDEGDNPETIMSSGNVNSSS

**Q.** For `CC[C@@H](Nc1ccc(C)c(CN2CC(C(=O)O)C2)c1)c1cc(C)c(Cl)c(C)c1` [Example 41, 1-{5-[(R)-1-(4-Chloro-3,5-dimethyl-phenyl)-propylamino]-2-methyl-benzyl}-azetidine-3-carboxylic acid], which IC50 is on record?
**A.** The IC50 was 1.3 nM.

**Q.** Which IC50 does the source give for `CC[C@@H](Nc1ccc(C)c(CN2CC(C(=O)O)C2)c1C)c1ccc(Cl)c(C)c1` [Example 33, 1-{3-[(R)-1-(4-Chloro-3-methyl-phenyl)-propylamino]-2,6-dimethyl-benzyl}-azetidine-3-carboxylic acid] here?
**A.** The IC50 was 0.6 nM.

**Q.** `CC[C@@H](Nc1ccc(C)c(CN2CC[C@@H](C(=O)O)C2)c1)c1ccc(Cl)c(C)c1` [Example 23, (R)-1-{5-[(R)-1-(4-Chloro-3-methyl-phenyl)-propylamino]-2-methyl-benzyl}-pyrrolidine-3-carboxylic acid] was tested. Which IC50 did it give?
**A.** Its IC50 is 1 nM.

**Q.** How did the IC50 turn out when `Cc1cc([C@H](Nc2ccc(C)c(CN3CC(C(=O)O)C3)c2)C(F)(F)F)ccc1Cl` [Example 70, 1-{5-[(S)-1-(4-Chloro-3-methyl-phenyl)-2,2,2-trifluoro-ethylamino]-2-methyl-benzyl}-azetidine-3-carboxylic acid] was run?
**A.** Its IC50 is 0.1 nM.

**Q.** With `Cc1cc([C@H](Nc2ccc(Cl)c(CN3CC(C)(C(=O)O)C3)c2)C(F)(F)F)ccc1Cl` [Example 65, 1-{2-Chloro-5-[(S)-1-(4-chloro-3-methyl-phenyl)-2,2,2-trifluoro-ethylamino]-benzyl}-3-methyl-azetidine-3-carboxylic acid] as the compound, how does the IC50 read?
**A.** The IC50 was 0.2 nM.

**Q.** Which IC50 does the source give for `Cc1cc(C(C)Nc2cccc(CN3CC(C(=O)O)C3)c2)ccc1Cl` (stereo not shown) [Example 1, 1-{3-[1-(4-Chloro-3-methyl-phenyl)-ethylamino]-benzyl}-azetidine-3-carboxylic acid] here?
**A.** The IC50 was 14.7 nM.

**Q.** How did the IC50 turn out when `Cc1ccc(N[C@H](C)c2cc(C)c(Cl)c(C)c2)cc1CNCCC(=O)O` [Example 47, 3-{5-[(R)-1-(4-Chloro-3,5-dimethyl-phenyl)-ethylamino]-2-methyl-benzylamino}-propionic acid] was run?
**A.** Its IC50 is 1.6 nM.

**Q.** For `Cc1cc([C@H](Nc2cccc(CN3CC(C(=O)O)C3)c2C)C(F)(F)F)ccc1Cl` [Example 39, 1-{3-[(S)-1-(4-Chloro-3-methyl-phenyl)-2,2,2-trifluoro-ethylamino]-2-methyl-benzyl}-azetidine-3-carboxylic acid], which IC50 is on record?
**A.** Its IC50 is 0.8 nM.

**Q.** With `CC[C@@H](Nc1ccc(C)c(CN(C)CCC(=O)O)c1)c1cc(C)c(Cl)c(C)c1` [Example 82, 3-({5-[(R)-1-(4-Chloro-3,5-dimethyl-phenyl)-propylamino]-2-methyl-benzyl}-methyl-amino)-propionic acid] as the compound, how does the IC50 read?
**A.** Its IC50 is 3 nM.

**Q.** With `CC[C@@H](Nc1cccc(CN2CC[C@@H](C(=O)O)C2)c1)c1ccc(Cl)c(C)c1` [Example 11] as the compound, how does the IC50 read?
**A.** The IC50 was 4 nM.

**Q.** `CC[C@@H](Nc1cc(CN2CC(C(=O)O)C2)ccn1)c1ccc(Cl)c(C)c1` [Example 75, 1-{2-[(R)-1-(4-Chloro-3-methyl-phenyl)-propylamino]-pyridin-4-ylmethyl}-azetidine-3-carboxylic acid] was tested. Which IC50 did it give?
**A.** The IC50 was 2.8 nM.

**Q.** With `Cc1cc([C@H](Nc2cccc(CN3CC(C(=O)O)C3)c2)C2CCC2)ccc1Cl` [Example 76, 1-(3-{[(R)-(4-Chloro-3-methyl-phenyl)-cyclobutyl-methyl]-amino}-benzyl)-azetidine-3-carboxylic acid] as the compound, how does the IC50 read?
**A.** Its IC50 is 5.7 nM.

**Q.** With `Cc1cc([C@H](Nc2cccc(CN3CC(C(=O)O)C3)c2)C(F)(F)F)ccc1Cl` [Example 67, 1-{3-[(S)-1-(4-Chloro-3-methyl-phenyl)-2,2,2-trifluoro-ethylamino]-benzyl}-azetidine-3-carboxylic acid] as the compound, how does the IC50 read?
**A.** The IC50 was 0.8 nM.

**Q.** How did the IC50 turn out when `CC[C@@H](Nc1cc(CN2CCC(C)(C(=O)O)C2)c(Cl)cn1)c1ccc(Cl)c(C)c1` (stereo partly drawn) [Example 57, 1-{5-Chloro-2-[(R)-1-(4-chloro-3-methyl-phenyl)-propylamino]-pyridin-4-ylmethyl}-3-methyl-pyrrolidine-3-carboxylic acid] was run?
**A.** Its IC50 is 2.4 nM.

**Q.** With `CCC(Nc1ccc(C)c(C(C)N2CC(C(=O)O)C2)c1)c1ccc(Cl)c(C)c1` (stereo not shown) [Example 10, 1-(1-{5-[1-(4-Chloro-3-methyl-phenyl)-propylamino]-2-methyl-phenyl}-ethyl)-azetidine-3-carboxylic acid] as the compound, how does the IC50 read?
**A.** The IC50 was 1.6 nM.

**Q.** Which IC50 does the source give for `CC[C@@H](Nc1cc(CNCCC(=O)O)c(Cl)cn1)c1ccc(Cl)c(C)c1` [Example 58, 3-({5-Chloro-2-[(R)-1-(4-chloro-3-methyl-phenyl)-propylamino]-pyridin-4-ylmethyl}-amino)-propionic acid] here?
**A.** Its IC50 is 0.1 nM.

**Q.** How did the IC50 turn out when `Cc1cc([C@H](Nc2ccc(Cl)c(CNCCC(=O)O)c2)C(F)(F)F)ccc1Cl` [Example 52, 3-{2-Chloro-5-[(S)-1-(4-chloro-3-methyl-phenyl)-2,2,2-trifluoro-ethylamino]-benzylamino}-propionic acid] was run?
**A.** The IC50 was 0.9 nM.

**Q.** For `CC[C@@H](Nc1cccc(CN2CC(C(=O)O)C2)c1)c1ccc2c(Cl)cccc2c1` [Example 20, 1-{3-[(R)-1-(5-Chloro-naphthalen-2-yl)-propylamino]-benzyl}-azetidine-3-carboxylic acid], which IC50 is on record?
**A.** Its IC50 is 2 nM.

**Q.** How did the IC50 turn out when `CCc1ccc(N[C@H](CC)c2ccc(Cl)c(C)c2)cc1CN1CC[C@@H](C(=O)O)C1` [Example 36, (R)-1-{5-[(R)-1-(4-Chloro-3-methyl-phenyl)-propylamino]-2-ethyl-benzyl}-pyrrolidine-3-carboxylic acid] was run?
**A.** The IC50 was 3.7 nM.

**Q.** With `Cc1cc([C@H](Nc2ccc(Cl)c(CN3CC(C(=O)O)C3)c2)C(C)C)cc(C)c1Cl` [Example 64, 1-{2-Chloro-5-[(R)-1-(4-chloro-3,5-dimethyl-phenyl)-2-methyl-propylamino]-benzyl}-azetidine-3-carboxylic acid] as the compound, how does the IC50 read?
**A.** Its IC50 is 1.7 nM.

**Q.** Which IC50 does the source give for `CC[C@@H](Nc1ccc(Cl)c(CN2CC[C@@H](C(=O)O)C2)c1)c1ccc(Cl)c(C)c1` [Example 38, (R)-1-{2-Chloro-5-[(R)-1-(4-chloro-3-methyl-phenyl)-propylamino]-benzyl}-pyrrolidine-3-carboxylic acid] here?
**A.** The IC50 was 0.8 nM.

**Q.** How did the IC50 turn out when `CC[C@@H](Nc1cccc(CN2CC(C(=O)O)C2)c1)c1cc(C)c(Cl)c(C)c1` [Example 18, 1-{3-[(R)-1-(4-Chloro-3,5-dimethyl-phenyl)-propylamino]-benzyl}-azetidine-3-carboxylic acid] was run?
**A.** The IC50 was 1.9 nM.

**Q.** Which IC50 does the source give for `Cc1cc([C@H](Nc2ccc(Cl)c(CN3CC(C(=O)O)C3)c2)C(F)(F)F)ccc1Cl` [Example 68] here?
**A.** The IC50 was 0.7 nM.

**Q.** How did the IC50 turn out when `CC[C@@H](Nc1cccc(CN2CC(C(=O)O)C2)n1)c1ccc(Cl)c(C)c1` [Example 74, 1-{6-[(R)-1-(4-Chloro-3-methyl-phenyl)-propylamino]-pyridin-2-ylmethyl}-azetidine-3-carboxylic acid] was run?
**A.** The IC50 was 14.1 nM.

**Q.** How did the IC50 turn out when `CC[C@@H](Nc1cc(CN2CC[C@@H](C(=O)O)C2)c(C)cn1)c1ccc(Cl)c(C)c1` [Example 60, (R)-1-{2-[(R)-1-(4-Chloro-3-methyl-phenyl)-propylamino]-5-methyl-pyridin-4-ylmethyl}-pyrrolidine-3-carboxylic acid] was run?
**A.** Its IC50 is 2.1 nM.
